Among the test systems are 786-0 renal; CAKI-1 renal; CCRF-CEM leukemia; HOP-62 NSCLC; RXF 393 renal; SF-539 CNS; SN12C renal; SNB-19 CNS; SW-620 colon.
Holding throughout (assay): NCI tumour cell line growth inhibition, 48 h

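Protocol summary: plate cells (96-well), add compound at 5 concentrations, incubate 48 h, interpolate endpoints linearly. GI50 is the concentration that inhibits growth by half. TGI is the concentration that stops growth completely.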 A value given as a limit tells only on which side of the number the result lay.

Consider `O=C(O)CCC(NC(=O)c1ccc(Nc2nc3ccccc3nc2-c2cccs2)cc1)C(=O)O` (stereo not given), for which the TGI in the experiment with 786-0 renal, with CAKI-1 renal, in the experiment on CCRF-CEM leukemia, in the experiment on HOP-62 NSCLC, in the experiment with RXF 393 renal and in the experiment with SF-539 CNS was greater than 100 µM in each case. The TGI in the experiment with SN12C renal, with SNB-19 CNS and with SW-620 colon was greater than 100 µM throughout.
For `COC(=O)c1ccccc1NC(=O)C(=O)Cc1nc2c3c(ccc2[nH]c1=O)C(=O)c1ccccc1C3=O`, the TGI in the experiment on 786-0 renal is 74.2 µM; in the experiment with CAKI-1 renal it was greater than 100 µM; in the experiment with CCRF-CEM leukemia, greater than 100 µM; in the experiment on HOP-62 NSCLC, 39.1 µM; with RXF 393 renal, 26.3 µM; with SF-539 CNS it was greater than 100 µM. For the same molecule, the values for the TGI in the experiment on SN12C renal, in the experiment with SNB-19 CNS and in the experiment with SW-620 colon were greater than 100 µM, greater than 100 µM and 55.7 µM, respectively.
For the molecule `OCC1=CC(NC2CC(CO)C(O)C(O)C2O)C(O)C(O)C1O` (stereo not given), the TGI in the experiment on 786-0 renal, in the experiment with CCRF-CEM leukemia, with HOP-62 NSCLC, in the experiment on RXF 393 renal, in the experiment on SF-539 CNS and in the experiment on SN12C renal was greater than 100 µM in each case. For the same molecule, the TGI with SNB-19 CNS and in the experiment with SW-620 colon was greater than 100 µM each time.
Turning to `CCN(CC)CCSc1c2ccccc2nc2cc(NCC(=O)Nc3ccccc3-c3ccccc3NC(=O)CNc3ccc4c(SCCN(CC)CC)c5ccccc5nc4c3)ccc12`, the TGI with 786-0 renal was greater than 100 µM; with CAKI-1 renal it was greater than 100 µM; in the experiment on CCRF-CEM leukemia, 96.9 µM; with HOP-62 NSCLC, greater than 100 µM; in the experiment on RXF 393 renal, greater than 100 µM; in the experiment on SF-539 CNS, greater than 100 µM. Besides, the TGI in the experiment on SN12C renal, in the experiment on SNB-19 CNS and in the experiment on SW-620 colon was greater than 100 µM in each case.
`O=C(CC(=O)c1cccc2ccccc12)C(=O)Nc1ccc(Cl)cc1`: the TGI with 786-0 renal, in the experiment on CAKI-1 renal, with CCRF-CEM leukemia, with HOP-62 NSCLC, in the experiment on SF-539 CNS and in the experiment on SN12C renal was greater than 100 µM in each case. The TGI in the experiment on SNB-19 CNS and in the experiment on SW-620 colon was greater than 100 µM in each case.
Turning to `C=CCO[C@H]1CO[C@H]2[C@@H]1OC[C@@H]2Oc1ccc(Nc2ccnc(Nc3ccc(O[C@H]4CO[C@H]5[C@@H]4OC[C@@H]5OCC=C)c(Cl)c3)n2)cc1Cl`, the GI50 was 1.87 µM in the experiment with 786-0 renal; 1.73 µM in the experiment on CAKI-1 renal; 0.652 µM in the experiment on CCRF-CEM leukemia; 1.93 µM in the experiment on HOP-62 NSCLC; 1.69 µM in the experiment on RXF 393 renal; 1.83 µM with SF-539 CNS. The results for the GI50 in the experiment on SN12C renal, in the experiment on SNB-19 CNS and in the experiment on SW-620 colon were 1.68 µM, 2 µM and 1.77 µM, respectively. Moreover, the TGI in the experiment on 786-0 renal was 3.37 µM; with CAKI-1 renal, 3.1 µM; in the experiment on CCRF-CEM leukemia it was 3.43 µM; in the experiment with HOP-62 NSCLC it was 4.01 µM; with RXF 393 renal, 3.1 µM; with SF-539 CNS it was 3.25 µM. The TGI worked out at 3.33 µM with SN12C renal, 3.73 µM with SNB-19 CNS and 3.29 µM with SW-620 colon.
Consider `CCOC(=O)CCC1(C(=O)OCC)CCCCC1=O` (stereo not given), for which the TGI in the experiment on 786-0 renal, in the experiment on CCRF-CEM leukemia, in the experiment on HOP-62 NSCLC, with RXF 393 renal, in the experiment on SF-539 CNS and in the experiment on SNB-19 CNS was greater than 100 µM throughout. Moreover, in the experiment with SW-620 colon, the TGI was greater than 100 µM.
Regarding `Cc1ccc(S(=O)(=O)OC[C@@H]2CO2)cc1`, the TGI in the experiment with 786-0 renal, in the experiment on CAKI-1 renal, in the experiment on CCRF-CEM leukemia, in the experiment on HOP-62 NSCLC, in the experiment on RXF 393 renal and with SF-539 CNS was greater than 100 µM throughout. The TGI in the experiment on SN12C renal, in the experiment on SNB-19 CNS and in the experiment with SW-620 colon was greater than 100 µM throughout.
In the case of `COc1ccccc1N1C(=O)C2c3[nH]c4ccccc4c3C3CCC(C(C)(C)C)CC3C2C1=O` (stereo not given), the TGI with 786-0 renal, in the experiment on CCRF-CEM leukemia, in the experiment on HOP-62 NSCLC, in the experiment on RXF 393 renal, with SF-539 CNS and in the experiment on SN12C renal was greater than 100 µM throughout. Besides, the TGI in the experiment with SNB-19 CNS and with SW-620 colon was greater than 100 µM in each case.
Turning to `CC1(C(=O)O)CCC[C@@]2(C)C1CC[C@@]1(C)c3cocc3CCC21` (stereo not given in full), the TGI in the experiment on 786-0 renal, in the experiment with CAKI-1 renal, in the experiment on CCRF-CEM leukemia, in the experiment with HOP-62 NSCLC, in the experiment on RXF 393 renal and with SF-539 CNS was greater than 100 µM in each case. The TGI in the experiment with SN12C renal, in the experiment with SNB-19 CNS and in the experiment with SW-620 colon was greater than 100 µM in each case.
On to `Cc1c(C(=O)CC(=O)C(=O)Nc2ccccc2C(F)(F)F)[n+](=O)c2ccccc2n1[O-]`, for which the TGI is greater than 100 µM with 786-0 renal; greater than 100 µM in the experiment on CAKI-1 renal; 50 µM in the experiment with CCRF-CEM leukemia; greater than 100 µM in the experiment on HOP-62 NSCLC; 80.1 µM with RXF 393 renal; 46.2 µM in the experiment with SF-539 CNS. The TGI in the experiment with SN12C renal is 54.4 µM; in the experiment with SNB-19 CNS, greater than 100 µM; in the experiment with SW-620 colon, 47 µM.
In the case of `CC(=O)[CH-]C(=O)c1ccccc1.CC(=O)[CH-]C(=O)c1ccccc1.CN(C)c1ccc([O-])cc1.CN(C)c1ccc([O-])cc1.Cl.[Ti+4]`, the GI50 in the experiment on 786-0 renal was 22.8 µM; in the experiment on CAKI-1 renal it was 21 µM; in the experiment with CCRF-CEM leukemia, 9.65 µM; with HOP-62 NSCLC, 21.8 µM; in the experiment with RXF 393 renal, 27.3 µM; in the experiment with SF-539 CNS, 19 µM. Moreover, the GI50 is 23.7 µM in the experiment on SN12C renal, 22 µM in the experiment with SNB-19 CNS and 18.5 µM in the experiment on SW-620 colon. Moreover, the TGI in the experiment on 786-0 renal, with CAKI-1 renal, in the experiment with CCRF-CEM leukemia, in the experiment on HOP-62 NSCLC, with RXF 393 renal and in the experiment on SF-539 CNS was greater than 31.6 µM in each case. For the same molecule, the TGI in the experiment on SN12C renal, in the experiment with SNB-19 CNS and with SW-620 colon was greater than 31.6 µM each time.
In the case of `NC1=NCCC1(c1ccccc1)c1ccccn1` (stereo not given), the TGI in the experiment with 786-0 renal, in the experiment on CAKI-1 renal, in the experiment with CCRF-CEM leukemia, in the experiment on HOP-62 NSCLC, in the experiment with RXF 393 renal and in the experiment on SF-539 CNS was greater than 100 µM throughout. Moreover, the TGI in the experiment on SN12C renal, with SNB-19 CNS and with SW-620 colon was greater than 100 µM throughout.

The values are drawn from PubChem BioAssay (NCI).
